Experimental data: article PMC10683025, “Discovery of a Hydroxylamine-Based Brain-Penetrant EGFR Inhibitor for Metastatic Non-Small-Cell Lung Cancer” (Journal of Medicinal Chemistry, 2023)
Where two headings read alike, the source gives them in different places.

Columns and labels:
Pharmacokinetic study = assay type: in vivo, Sprague-Dawley rats
Experimental: Animal experiments were performed at Pharmaron, Inc. and animal use was approved by Pharmaron’s Institutional Animal Care and Use Committee (IACUC) in Pharmaron (Pharmaron IACUC, Protocol #PK-M-07182022, #PK-R-06012022, and #ON-CELL-XEN-06012022) following the guidance of AAALAC. Six- to eight-week-old male Sprague-Dawley rats (approximately 200–300 g) obtained from Si Bei Fu Laboratory Animal Technology Co., six- to eight-week-old male CD1 mice (approximately 20–30 g) obtained from Si Bei Fu Laboratory Animal Technology Co., and six- to eight-week-old female BALB/c nude mice (approximately 20–30 g) obtained from Si Bei Fu Laboratory Animal Technology Co., were used in the pharmacokinetic studies. Six- to eight-week-old female BALB/c nude mice (approximately 18–22 g) obtained from Beijing Anikeeper Biotech Co., Ltd. were used in the intracranial PDX study. Animals were housed at 20–25 °C with humidity ranging from 40 to 70% relative humidity, were exposed to 12 h light and dark cycles, and were supplied with food and water ab libitum.
Approximately 0.03 mL of blood was collected from the dorsal metatarsal vein (in the case of CD1 mice), 0.03 mL of blood from the orbit vein (in the case of BALB/c nude mice), or 0.2 mL of blood from the jugular vein (in the case of Sprague-Dawley rats) at each time point. Blood at each sampling point was transferred into a plastic micro centrifuge tube containing K2-EDTA, and collection tubes with blood samples and anticoagulant were inverted several times for proper mixing of the tube contents and placed on ice prior to centrifugation for plasma. Blood samples were centrifuged at 4 °C, 4000g for 5 min to obtain plasma. Samples were stored in a freezer at −75 °C prior to analysis. Concentrations of test articles in the plasma samples were determined using LC-MS/MS and WinNonlin 8.3 (Phoenix) was used for pharmacokinetic calculations. The values obtained were plotted on GraphPad Prism software and are presented as mean ± SD.

[1] = tested on: NCI-H3255 (EGFR mutation = L858R); assay: CellTiter-Glo cell viability assay; assay type: cell-based, human; conditions: NCI-H3255
Experimental: The NCI-H3255 cell line was obtained from CoBioer. […] NCI-H3255 cells were cultured in BEGM (Lonza) with 10% FBS. […] All cells were cultured in a humidified incubator with 5% CO2 at 37 °C.
Viability assays using A431, HCC827, NCI-H1975, NCI-H3255, Ba/F3 EGFR-del E746_A750/C797S, Ba/F3 EGFR-L858R/C797S, AU565, SK-BR-3, and ZR-75-30 cells were performed at Crown BioScience.

EGFR del E746_A750 = biological target: T1, EGFR del E746_A750 (Homo sapiens, UniProt P00533, DEL746-750); assay: KINOMEScan KdELECT Kd determination; assay type: binding
T1 construct: purchased Eurofins DiscoverX (contract assay)
T1 sequence (P00533 with tags, fused parts or gaps DEL746-750): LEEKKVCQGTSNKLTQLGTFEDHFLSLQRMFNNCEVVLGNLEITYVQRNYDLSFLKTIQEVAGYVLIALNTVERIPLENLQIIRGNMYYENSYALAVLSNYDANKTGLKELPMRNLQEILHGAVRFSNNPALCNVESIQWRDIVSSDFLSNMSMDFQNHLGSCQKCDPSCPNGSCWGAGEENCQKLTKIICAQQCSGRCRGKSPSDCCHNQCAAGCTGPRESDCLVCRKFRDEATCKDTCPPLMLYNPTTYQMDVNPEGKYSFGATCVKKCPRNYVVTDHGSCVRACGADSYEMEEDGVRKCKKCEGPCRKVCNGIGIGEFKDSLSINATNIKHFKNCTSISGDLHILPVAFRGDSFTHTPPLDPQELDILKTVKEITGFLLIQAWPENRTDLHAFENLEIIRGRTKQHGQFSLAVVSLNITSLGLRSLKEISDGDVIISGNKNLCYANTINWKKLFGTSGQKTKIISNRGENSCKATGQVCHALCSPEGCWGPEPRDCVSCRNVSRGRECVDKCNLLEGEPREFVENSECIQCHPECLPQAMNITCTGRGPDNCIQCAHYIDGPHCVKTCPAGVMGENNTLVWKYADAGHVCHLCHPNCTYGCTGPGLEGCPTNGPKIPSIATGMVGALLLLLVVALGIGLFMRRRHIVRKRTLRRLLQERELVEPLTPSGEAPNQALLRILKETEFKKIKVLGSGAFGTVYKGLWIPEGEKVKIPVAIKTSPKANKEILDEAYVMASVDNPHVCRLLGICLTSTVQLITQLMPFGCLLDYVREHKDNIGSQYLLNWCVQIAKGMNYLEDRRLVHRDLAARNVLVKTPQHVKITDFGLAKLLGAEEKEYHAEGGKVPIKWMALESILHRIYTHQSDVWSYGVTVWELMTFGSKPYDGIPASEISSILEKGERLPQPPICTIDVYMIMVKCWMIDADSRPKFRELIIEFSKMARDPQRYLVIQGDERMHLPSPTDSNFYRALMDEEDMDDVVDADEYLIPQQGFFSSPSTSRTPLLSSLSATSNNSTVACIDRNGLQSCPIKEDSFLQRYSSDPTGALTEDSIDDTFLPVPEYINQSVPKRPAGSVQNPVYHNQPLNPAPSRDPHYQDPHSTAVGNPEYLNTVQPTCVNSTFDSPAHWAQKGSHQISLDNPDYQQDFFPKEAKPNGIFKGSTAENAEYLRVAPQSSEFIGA
Experimental: (§2) In vitro kinase activity (inhibitor binding constants (Kd) and biochemical inhibition (IC50’s)) were assessed by Eurofins DiscoverX (Kd determinations) and Eurofins Cerep (biochemical IC50 determinations).

AMPK-alpha1 = biological target: T2, AMPK-alpha1 (Homo sapiens, UniProt Q13131); assay: KINOMEScan; assay type: binding; conditions: AMPK-alpha1, 1 µM; read-out: Percent Control
T2 construct: purchased Eurofins DiscoverX (KINOMEscan)
T2 sequence (Q13131 whole entry): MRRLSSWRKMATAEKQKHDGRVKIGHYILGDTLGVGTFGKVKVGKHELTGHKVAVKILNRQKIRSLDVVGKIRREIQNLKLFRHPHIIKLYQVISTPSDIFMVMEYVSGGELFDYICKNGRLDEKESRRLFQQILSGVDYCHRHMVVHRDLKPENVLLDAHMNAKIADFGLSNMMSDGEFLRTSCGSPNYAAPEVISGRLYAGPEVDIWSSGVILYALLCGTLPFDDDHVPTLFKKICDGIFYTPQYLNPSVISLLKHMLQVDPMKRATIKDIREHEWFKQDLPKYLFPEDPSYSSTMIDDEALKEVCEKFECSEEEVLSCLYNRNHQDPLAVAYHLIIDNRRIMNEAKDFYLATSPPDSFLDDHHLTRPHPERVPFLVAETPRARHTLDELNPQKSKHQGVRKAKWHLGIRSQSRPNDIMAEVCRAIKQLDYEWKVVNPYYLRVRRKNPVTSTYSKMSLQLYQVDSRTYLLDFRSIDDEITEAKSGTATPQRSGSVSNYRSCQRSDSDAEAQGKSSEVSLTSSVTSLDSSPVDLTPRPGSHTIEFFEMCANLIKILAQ
Source text: (§3) Percent control was mapped onto the kinome tree using TREEspot.

EGFRwt = biological target: T3, EGFRwt (Homo sapiens, UniProt P00533); assay: KINOMEScan KdELECT Kd determination; assay type: binding; conditions: wt; read-out: EGFR Kd
T3 construct: purchased Eurofins DiscoverX (contract assay)
T3 sequence (P00533 25-1210): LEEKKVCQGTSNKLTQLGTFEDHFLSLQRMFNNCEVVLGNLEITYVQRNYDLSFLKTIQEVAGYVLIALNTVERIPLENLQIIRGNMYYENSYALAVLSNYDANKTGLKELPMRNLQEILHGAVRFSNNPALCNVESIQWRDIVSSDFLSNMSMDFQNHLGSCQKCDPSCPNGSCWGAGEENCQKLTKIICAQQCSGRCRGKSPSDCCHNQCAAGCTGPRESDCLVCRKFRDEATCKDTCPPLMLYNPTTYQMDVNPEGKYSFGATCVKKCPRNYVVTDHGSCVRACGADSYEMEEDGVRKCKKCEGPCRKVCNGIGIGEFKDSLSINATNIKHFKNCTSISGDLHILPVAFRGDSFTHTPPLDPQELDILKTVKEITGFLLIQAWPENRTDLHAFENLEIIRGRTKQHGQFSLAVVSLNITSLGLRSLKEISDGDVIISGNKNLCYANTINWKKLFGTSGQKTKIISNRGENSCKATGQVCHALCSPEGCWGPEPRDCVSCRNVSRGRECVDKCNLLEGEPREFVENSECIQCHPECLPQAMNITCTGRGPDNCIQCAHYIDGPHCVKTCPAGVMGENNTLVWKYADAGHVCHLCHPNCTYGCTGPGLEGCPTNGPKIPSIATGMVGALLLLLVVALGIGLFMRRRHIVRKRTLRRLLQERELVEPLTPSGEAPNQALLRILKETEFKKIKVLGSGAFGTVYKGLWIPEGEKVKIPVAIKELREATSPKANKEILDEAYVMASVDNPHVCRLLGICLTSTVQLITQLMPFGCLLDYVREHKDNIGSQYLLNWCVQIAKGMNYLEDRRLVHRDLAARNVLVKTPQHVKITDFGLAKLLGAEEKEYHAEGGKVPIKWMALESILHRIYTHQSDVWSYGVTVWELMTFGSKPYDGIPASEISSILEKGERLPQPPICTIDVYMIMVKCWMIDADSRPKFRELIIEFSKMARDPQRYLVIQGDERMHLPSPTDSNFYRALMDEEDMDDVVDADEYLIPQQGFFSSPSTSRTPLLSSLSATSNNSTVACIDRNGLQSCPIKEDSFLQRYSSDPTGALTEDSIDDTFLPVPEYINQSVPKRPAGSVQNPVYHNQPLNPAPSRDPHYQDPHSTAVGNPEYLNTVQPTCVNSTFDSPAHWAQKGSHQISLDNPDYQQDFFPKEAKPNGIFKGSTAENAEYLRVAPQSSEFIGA
Experimental: as §2

[2] = Plasma protein binding by equilibrium dialysis; assay type: in vitro ADME, mouse
Experimental: (§1) Plasma protein binding and brain tissue binding were determined by Pharmaron, Inc. using the equilibrium dialysis method. […] Following incubation, the samples were analyzed by LC-MS/MS and the concentrations of the compounds were determined in the buffer and plasma solution chambers.

MDR1 = assay: MDCKII-MDR1 permeability; assay type: in vitro ADME, canine; conditions: dog, MDCK-MDR1
MDCKII-MDR1 permeability = assay type: in vitro ADME, canine; conditions: dog, MDCK-MDR1, MDCKII-MDR1
[3] = Metabolic stability in liver microsomes; assay type: in vitro ADME, human; conditions: for Remaining Percentage: human LM
Experimental: (§4) Microsome stability was assessed in duplicate (n = 2) in the presence and absence of nicotinamide adenine dinucleotide phosphate (NADPH) with liver microsomes (0.5 mg/mL) from human (BD Gentest) and Sprague-Dawley rats (BD Gentest). Compounds were incubated in liver microsomes at 1 μM and samples (30 μL) were taken at 0.5, 15, 30, 45, and 60 min time points for analysis by LC-MS/MS. Hepatocyte stability was assessed in duplicate (n = 2) at a working cell density of 0.5 × 10^6 cells/mL with hepatocytes from human (BiolVT), Sprague-Dawley rat (BiolVT), cynomolgus monkey (RILD) or beagle dog (BiolVT). […] The in vitro half-life and intrinsic clearances were determined as previously described.[76]
(§5) In vitro half-life (in vitro t1/2) was determined from the slope value in [drawing 1] where k was determined by linear regression of the natural logarithm of the remaining percentage of the parent drug vs the incubation time curve.

[4] = Metabolic stability in hepatocytes; assay type: in vitro ADME, human; conditions: for Remaining Percentages: human hepatocytes
Experimental: as §4, §5

Plasma stability = assay type: in vitro ADME, Sprague-Dawley rat
Experimental: Assessment of compounds to determine stability in incubations containing plasma of human (Pharmaron) and Sprague-Dawley rat (IPHASE) was performed by Pharmaron, Inc. using the compound […] approach. Compounds were assessed in duplicate (n = 2) and incubated in plasma at 5 μM and samples (50 μL) were taken at 0, 15, 30, 60, and 120 min time points for analysis by LC-MS/MS. Peak area ratios were determined from the extracted ion chromatogram and the percent compound remaining at each time point was calculated by the following equation: [drawing 2] where peak area ratiot min is the peak area ratio of control and test compound at t min and peak area ratio0 min is the peak area ratio of control and test compound at zero time point.

[5] = Lipophilicity, shake-flask; assay type: physicochemical; conditions: 1-octanol/PBS; 1-octanol and PBS (pH 7.4); read-out: logD7.4
Experimental: Compound lipophilicity was determined by Pharmaron, Inc. using the shake-flask method with 1-octanol and PBS (pH 7.4). Each compound was assessed in duplicate (n = 2) at 1 μM in a 96-well plate shaken at 25 °C and 2000 rpm for 2 h. Samples were analyzed by liquid chromatography and tandem mass spectrometry (LC-MS/MS).

[6] = Plasma protein binding by equilibrium dialysis; assay type: in vitro ADME
Experimental: as §1

[7] = biological target: T4, ABL1(E255K)-phosphorylated (Homo sapiens, UniProt P00519, E255K); assay: KINOMEScan; assay type: binding; conditions: read-out: Percent Control
T4 construct: purchased Eurofins DiscoverX
T4 sequence (P00519 whole entry E255K): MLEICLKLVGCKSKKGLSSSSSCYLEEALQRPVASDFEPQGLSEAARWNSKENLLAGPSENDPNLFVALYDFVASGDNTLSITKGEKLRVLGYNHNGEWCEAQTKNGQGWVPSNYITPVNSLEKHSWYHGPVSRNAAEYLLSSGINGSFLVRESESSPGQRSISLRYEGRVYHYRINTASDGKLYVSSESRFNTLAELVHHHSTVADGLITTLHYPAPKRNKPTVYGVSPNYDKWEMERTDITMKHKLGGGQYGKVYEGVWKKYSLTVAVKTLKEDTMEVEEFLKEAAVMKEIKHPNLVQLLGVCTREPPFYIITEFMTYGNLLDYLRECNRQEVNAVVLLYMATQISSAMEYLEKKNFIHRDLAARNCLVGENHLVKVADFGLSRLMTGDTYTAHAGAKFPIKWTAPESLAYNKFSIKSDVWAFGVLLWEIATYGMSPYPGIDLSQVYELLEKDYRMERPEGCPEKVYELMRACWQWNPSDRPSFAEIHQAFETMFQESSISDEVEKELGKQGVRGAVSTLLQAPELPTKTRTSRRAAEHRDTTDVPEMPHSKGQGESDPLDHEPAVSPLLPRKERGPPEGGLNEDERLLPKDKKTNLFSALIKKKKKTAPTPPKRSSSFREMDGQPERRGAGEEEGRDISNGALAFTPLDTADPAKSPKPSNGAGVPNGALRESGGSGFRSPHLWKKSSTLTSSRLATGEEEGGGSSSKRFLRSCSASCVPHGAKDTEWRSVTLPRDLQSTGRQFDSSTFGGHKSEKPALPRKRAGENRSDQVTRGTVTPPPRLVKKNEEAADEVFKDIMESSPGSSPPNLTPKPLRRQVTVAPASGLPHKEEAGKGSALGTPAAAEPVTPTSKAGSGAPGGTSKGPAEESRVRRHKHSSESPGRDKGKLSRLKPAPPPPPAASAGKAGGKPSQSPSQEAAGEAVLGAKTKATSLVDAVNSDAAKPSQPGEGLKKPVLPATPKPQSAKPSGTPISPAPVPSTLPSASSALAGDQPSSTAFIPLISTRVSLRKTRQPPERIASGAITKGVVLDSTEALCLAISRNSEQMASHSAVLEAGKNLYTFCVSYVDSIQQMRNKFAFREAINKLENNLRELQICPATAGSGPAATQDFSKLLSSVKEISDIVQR
Source text: as §3

[8] = male, Sprague-Dawley, plasma, Rat 2 mg/kg (IV)
[9] = male, Sprague-Dawley, plasma, Rat 20 mg/kg (PO)
[10] = male, Sprague-Dawley, plasma, rat, 1 mg/kg IV and 5 mg/kg PO dosing (route of value not stated)
[11] = CD-1, plasma, mouse, 5 μM, read-out: fu,plasma% / %Unbound
[12] = Sprague-Dawley, rat, rat plasma

In the case of `COc1cc2ncnc(Nc3cccc(Cl)c3F)c2cc1OCCON1CCN(C)CC1` [Compound 9, N-(3-Chloro-2-fluorophenyl)-7-methoxy-6-(2-((4-methylpiperazin-1-yl)oxy)ethoxy)quinazolin-4-amine], the “adverse events or signs of toxicity” value (Pharmacokinetic study; Sprague-Dawley rats at the tested PK doses) is reported as “No adverse events or signs of toxicity were observed”, the clearance at 24 h (Pharmacokinetic study; [8]) is reported as 59.6 ± 22.2 mL/min/kg and the half-life at 24 h (Pharmacokinetic study; [8]) is reported as 2.4 ± 1.07 h. The Vd at 24 h (Pharmacokinetic study; male, Sprague-Dawley, plasma, Rat 2 mg/kg (IV), read-out: Vss) was 6.67 L/kg, the Cmax at 24 h (Pharmacokinetic study; [9]) was 653 ± 106 nM and the Tmax at 24 h (Pharmacokinetic study; [9]) was 2 h. The bioavailability at 24 h (Pharmacokinetic study; [9]) was 64%, the half-life at 24 h (Pharmacokinetic study; [9]) was 2.37 h and the AUC(0-inf) at 24 h (Pharmacokinetic study; [10]) was 279 ng·h/mL. It also gave a half-life at 24 h (Pharmacokinetic study; [10]) of 2.29 h, an AUC(0-inf) (Pharmacokinetic study; male, Sprague-Dawley, plasma, rat, 20 mg/kg PO) of 3910 ng·h/mL and an IC50 ([1]; Homo sapiens, 72 h, unadjusted for FBS) of 7.2 nM. The “improvement of IC50 over 6” value [1] was “roughly 12 fold”, the Kd (EGFR del E746_A750) was less than 0.2 nM and the remaining binding at 1 µM (AMPK-alpha1) was 100%. For the same compound, the Kd (EGFRwt) was less than 0.2 nM, the recovery at 6 h, 5 μM ([2]; CD-1, mouse, mouse plasma) was 95.4% and the remaining at 6 h, 5 μM ([2]; CD-1, mouse, mouse plasma) was 92.9%. The fraction unbound at 6 h, 5 μM ([2]; CD-1, mouse, mouse plasma, read-out: %Bound (converted)) was 0.0702, the fraction unbound at 6 h, 5 µM [2, 11] was 0.07 and the fraction unbound at 6 h, 5 μM [2, 11] was 0.0702. It also gave an efflux ratio at 2 h, 1 µM (MDR1) of 0.9, an efflux ratio at 2 h, 1 μM (MDR1) of 0.92 and a Papp A→B at 2 h, 1 µM (MDR1; 1 μM, 2 h) of 9.8 ×10⁻⁶ cm/s. The Papp A→B at 2 h, 1 μM (MDR1; 1 μM, 2 h) was 9.82 ×10⁻⁶ cm/s, the Papp B→A at 2 h, 1 µM (MDR1; 1 μM, 2 h) was 9.1 ×10⁻⁶ cm/s and the Papp B→A at 2 h, 1 μM (MDR1; 1 μM, 2 h) was 9.06 ×10⁻⁶ cm/s. For the same compound, the recovery at 2 h, 1 μM (MDCKII-MDR1 permeability; read-out: Recovery% (AP-BL)) was 68.6%, the recovery at 2 h, 1 μM (MDCKII-MDR1 permeability; read-out: Recovery% (BL-AP)) was 90% and the “Remaining Percentage” value ([3]; +Cofactors, 15 min) was 69.65%. The “Remaining Percentage” value ([3]; +Cofactors, 30 min) was 46.26%, the “Remaining Percentage” value ([3]; +Cofactors, 45 min) was 31.49% and the “Remaining Percentage” value ([3]; +Cofactors, 60 min) was 26.65%. The “Remaining Percentage” value ([3]; -Cofactors, 60 min) was 109.86%, the half-life at 1 h, 1 µM ([3]; human, liver microsomes, read-out: LM t1/2) was 0.5 h and the microsomal CLint at 1 h, 1 µM ([3]; human, liver microsomes, read-out: LMClint) was 46 µL/min/mg. The “Remaining Percentages” value ([4]; 15 min) was 98.94%, the “Remaining Percentages” value ([4]; 30 min) was 89.67% and the “Remaining Percentages” value ([4]; 60 min) was 75.36%. For the same compound, the “Remaining Percentages” value ([4]; 90 min) was 58.28%, the “Remaining Percentages” value ([4]; 120 min) was 52.37% and the hepatocyte CLint at 2 h, 1 µM ([4]; human, hepatocytes) was 12 µL/min/1e6 cells. For the same compound, the half-life at 2 h, 1 µM ([4]; human, hepatocytes, read-out: HEP t1/2) was 1.95 h, the remaining at 5 μM (Plasma stability; Sprague-Dawley, rat, plasma) was greater than 90% and the “Remaining Percentages” value (Plasma stability; rat plasma, 15 min) was 96.53%. The “Remaining Percentages” value (Plasma stability; rat plasma, 30 min) was 95.56%, the “Remaining Percentages” value (Plasma stability; rat plasma, 60 min) was 99.37% and the “Remaining Percentages” value (Plasma stability; rat plasma, 120 min) was 96.60%. The t1/2 (Plasma stability; rat plasma, ∞ = no degradation) was “∞”, the logD at 2 h, 1 µM [5] was 2.8 and the fraction unbound at 6 h, 5 μM ([6]; Sprague-Dawley, rat, plasma, 5 μM, read-out: fu,plasma% / %Unbound) was 0.128. The recovery at 6 h, 5 μM [6, 12] was 106%, the remaining at 6 h, 5 μM [6, 12] was 99.6% and the fraction unbound at 6 h, 5 μM ([6]; Sprague-Dawley, rat, rat plasma, read-out: %Bound (converted)) was 0.128. For the same compound, the recovery at 6 h, 5 μM ([6]; human, human plasma) was 101%, the remaining at 6 h, 5 μM ([6]; human, human plasma) was 102% and the fraction unbound at 6 h, 5 μM ([6]; human, human plasma, read-out: fu,plasma% / %Unbound (converted)) was 0.0442. The fraction unbound at 6 h, 5 µM ([6]; plasma, human, 5 μM, read-out: fu,plasma% / %Unbound) was 0.044, the fraction unbound at 6 h, 5 μM ([6]; plasma, human, 5 μM, read-out: fu,plasma% / %Unbound (converted)) was 0.0442 and the “fu,plasma% / %Unbound” value ([6]; rat, 5 μM) was 12.75%. For the same compound, the remaining binding at 1 µM [7] was 6.4%.
